# In US20260138961A1, “MODULATORS OF MITOCHONDRIAL DNA REPLICATION” (Pretzel Therapeutics, Inc., priority 2022, published 2026):
# Molecular target: T1, POLγA:G848S (Homo sapiens, UniProt P54098, G848S)
# T1 sequence (P54098 1-1239 G848S): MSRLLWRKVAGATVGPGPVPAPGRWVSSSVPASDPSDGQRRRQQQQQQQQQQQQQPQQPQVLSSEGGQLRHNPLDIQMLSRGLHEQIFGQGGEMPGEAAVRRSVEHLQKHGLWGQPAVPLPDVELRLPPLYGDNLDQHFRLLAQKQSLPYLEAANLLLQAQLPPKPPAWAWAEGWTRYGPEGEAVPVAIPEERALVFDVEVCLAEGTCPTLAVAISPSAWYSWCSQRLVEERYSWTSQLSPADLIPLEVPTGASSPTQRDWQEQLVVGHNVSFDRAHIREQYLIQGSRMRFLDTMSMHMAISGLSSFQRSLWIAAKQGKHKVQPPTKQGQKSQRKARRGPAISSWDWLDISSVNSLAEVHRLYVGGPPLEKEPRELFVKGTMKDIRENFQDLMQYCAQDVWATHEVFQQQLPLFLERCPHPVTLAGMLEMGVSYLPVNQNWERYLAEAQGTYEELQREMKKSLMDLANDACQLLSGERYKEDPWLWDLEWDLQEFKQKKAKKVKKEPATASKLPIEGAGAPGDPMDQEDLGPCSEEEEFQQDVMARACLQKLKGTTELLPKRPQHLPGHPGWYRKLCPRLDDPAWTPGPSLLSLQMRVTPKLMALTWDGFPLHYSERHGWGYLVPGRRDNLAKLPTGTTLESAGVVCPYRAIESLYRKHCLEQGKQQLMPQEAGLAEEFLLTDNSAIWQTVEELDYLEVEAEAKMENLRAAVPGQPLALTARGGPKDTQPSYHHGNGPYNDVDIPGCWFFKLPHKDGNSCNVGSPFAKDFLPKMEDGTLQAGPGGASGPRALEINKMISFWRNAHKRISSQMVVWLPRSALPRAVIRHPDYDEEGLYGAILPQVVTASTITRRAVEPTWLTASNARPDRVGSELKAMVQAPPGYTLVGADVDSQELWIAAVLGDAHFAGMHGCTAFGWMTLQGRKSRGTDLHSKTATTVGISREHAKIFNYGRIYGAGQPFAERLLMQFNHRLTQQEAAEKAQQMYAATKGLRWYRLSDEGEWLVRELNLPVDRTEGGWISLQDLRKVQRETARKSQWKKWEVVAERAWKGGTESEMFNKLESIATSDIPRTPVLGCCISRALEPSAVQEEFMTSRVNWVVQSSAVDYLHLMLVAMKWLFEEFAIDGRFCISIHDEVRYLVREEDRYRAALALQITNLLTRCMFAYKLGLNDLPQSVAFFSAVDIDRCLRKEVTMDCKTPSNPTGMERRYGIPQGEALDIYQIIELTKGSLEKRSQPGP
# T1 sequence (Q9UHN1 1-485 partner): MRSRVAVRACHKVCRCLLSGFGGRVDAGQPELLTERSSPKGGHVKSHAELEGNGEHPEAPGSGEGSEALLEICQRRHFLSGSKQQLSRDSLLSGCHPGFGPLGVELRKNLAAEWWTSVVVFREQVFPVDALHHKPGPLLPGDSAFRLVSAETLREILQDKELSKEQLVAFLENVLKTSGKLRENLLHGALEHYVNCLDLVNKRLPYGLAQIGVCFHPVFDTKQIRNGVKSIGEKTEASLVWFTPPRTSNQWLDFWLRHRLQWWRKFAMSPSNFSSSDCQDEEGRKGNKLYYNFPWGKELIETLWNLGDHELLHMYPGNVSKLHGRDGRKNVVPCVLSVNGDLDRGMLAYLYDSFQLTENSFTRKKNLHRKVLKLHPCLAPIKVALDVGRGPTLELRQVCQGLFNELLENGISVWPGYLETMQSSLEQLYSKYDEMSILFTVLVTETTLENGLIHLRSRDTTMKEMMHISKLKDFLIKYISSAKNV
# Assay: DNA polymerization assay, POLγA:G848S mutant
# Assay type: biochemical
# Conditions: stimulation of polymerase activity, primed M13mp18 ssDNA, 37° C. 2 hours; read-out: G848S AC50
row,AC50,SMILES
1,> 100 µM,"Cc1cc(S(=O)(=O)Nc2ccccc2-c2ncco2)c(C)cc1Cl [Example 77, 4-chloro-2,5-dimethyl-N-(2-(oxazol-2-yl)phenyl)benzenesulfonamide]"
2,> 100 µM,"Cc1cc(S(=O)(=O)Nc2cccc(-c3ncc(C(=O)O)s3)c2)c(C)cc1Cl [Example 90, 2-(3-((4-chloro-2,5-dimethylphenyl)sulfonamido)phenyl) thiazole-5-carboxylic acid]"
3,> 10 µM,"Cc1cnc(-c2ccccc2NS(=O)(=O)c2cc(C)c(Cl)cc2C)s1 [Example 79, 4-chloro-2,5-dimethyl-N-(2-(5-methylthiazol-2-yl)phenyl)benzenesulfonamide]"
4,> 100 µM,"Cc1cc(S(=O)(=O)Nc2cccc(C(=O)N3CCCN(C(=O)C(C)C)CC3)c2)c(C)cc1Cl [Example 91, 4-chloro-N-(3-(4-isobutyryl-1,4-diazepane-1-carbonyl)phenyl)-2,5-dimethylbenzenesulfonamide]"
5,> 100 µM,"Cc1nc2cccc(NS(=O)(=O)c3cc(C)c(Cl)cc3C)c2s1 [Example 85, 4-chloro-2,5-dimethyl-N-(2-methylbenzo[d]thiazol-7-yl)benzenesulfonamide]"
6,> 100 µM,"Cc1cc(S(=O)(=O)Nc2ccc(-c3ncc(CN(C)C)s3)cc2)c(C)cc1Cl [Example 86, 4-chloro-N-(4-(5-((dimethylamino)methyl)thiazol-2-yl)phenyl)-2,5-dimethylbenzenesulfonamide]"
7,> 10 µM,"Cc1cnc(-c2cccc(S(=O)(=O)Nc3cc(C)c(Cl)cc3C)c2)s1 [Example 78, N-(4-chloro-2,5-dimethylphenyl)-3-(5-methylthiazol-2-yl)benzenesulfonamide]"
8,2 µM,"Cc1cc(S(=O)(=O)Nc2csc(-c3ccccc3)n2)c(C)cc1Cl [Example 81, 4-chloro-2,5-dimethyl-N-(2-phenylthiazol-4-yl)benzenesulfonamide]"
9,> 100 µM,"Cc1cc(S(=O)(=O)Nc2ccc3nc(-c4ccccc4)sc3c2)c(C)cc1Cl [Example 74, 4-chloro-2,5-dimethyl-N-(2-phenylbenzo[d]thiazol-6-yl)benzenesulfonamide]"
10,14 µM,"Cc1nc2ccc(NS(=O)(=O)c3cc(C)c(Cl)cc3C)cc2s1 [Example 73, 4-chloro-2,5-dimethyl-N-(2-methylbenzo[d]thiazol-6-yl)benzenesulfonamide]"
11,3 µM,"Cc1cnc(-c2ccc(NS(=O)(=O)c3cc(C)c(Cl)cc3C)cc2)s1 [Example 83, 4-chloro-2,5-dimethyl-N-(4-(5-methylthiazol-2-yl)phenyl)benzenesulfonamide]"
12,> 10 µM,"Cc1cc(S(=O)(=O)Nc2cc(-c3ccccc3)no2)c(C)cc1Cl [Example 84, 4-chloro-2,5-dimethyl-N-(3-phenylisoxazol-5-yl)benzenesulfonamide]"
13,> 10 µM,"Cc1csc(-c2ccccc2NS(=O)(=O)c2cc(C)c(Cl)cc2C)n1 [Example 80, 4-chloro-2,5-dimethyl-N-(2-(4-methylthiazol-2-yl)phenyl)benzenesulfonamide]"
14,0.9 µM,"Cc1cc(S(=O)(=O)Nc2csc(-c3ccnn3C)n2)c(C)cc1Cl [Example 182, 4-chloro-2,5-dimethyl-N-(2-(1-methyl-1H-pyrazol-5-yl)thiazol-4-yl)benzenesulfonamide]"
15,14 µM,"Cc1cc(S(=O)(=O)Nc2cccc(-c3ncc(CN(C)C)s3)c2)c(C)cc1Cl [Example 87, 4-chloro-N-(3-(5-((dimethylamino)methyl)thiazol-2-yl)phenyl)-2,5-dimethylbenzenesulfonamide]"
16,> 10 µM,"Cc1cc(S(=O)(=O)NC2CCOc3c(Cl)cccc32)c(C)cc1Cl (stereo not drawn) [Example 82, 4-chloro-N-(8-chlorochroman-4-yl)-2,5-dimethylbenzenesulfonamide]"
17,3 µM,"Cc1cc(S(=O)(=O)Nc2cccc(-c3ncc(CO)s3)c2)c(C)cc1Cl [Example 89, 4-chloro-N-(3-(5-(hydroxymethyl)thiazol-2-yl)phenyl)-2,5-dimethylbenzenesulfonamide]"
18,98 µM,"Cc1cc(S(=O)(=O)Nc2ccc3ccn(C)c3c2)c(C)cc1Cl [Example 72, 4-chloro-2,5-dimethyl-N-(1-methyl-1H-indol-6-yl)benzenesulfonamide]"
19,> 100 µM,"COC(=O)c1cnc(-c2cccc(NS(=O)(=O)c3cc(C)c(Cl)cc3C)c2)s1 [Example 88, methyl 2-(3-((4-chloro-2,5-dimethylphenyl)sulfonamido)phenyl) thiazole-5-carboxylate]"
20,> 100 µM,"Cc1nc2cc(NS(=O)(=O)c3cc(C)c(Cl)cc3C)ccc2o1 [Example 75, 4-chloro-2,5-dimethyl-N-(2-methylbenzo[d]oxazol-5-yl)benzenesulfonamide]"
21,3 µM,"Cc1cc(S(=O)(=O)Nc2cccc(-c3ncc(C4CC4)s3)c2)c(C)cc1Cl [Example 76, 4-chloro-N-(3-(5-cyclopropylthiazol-2-yl)phenyl)-2,5-dimethylbenzenesulfonamide]"
